Entries after “also recorded” stand apart in the source; their conditions may differ. Where two headings read alike, the source gives them in different places.
Tests used:
[1] = target: PRMT5:WDR77 hetero-octameric complex (Homo sapiens, UniProt O14744); experiment: Fluorescence polarization; type: binding; conditions: for inhibition of PRMT5-PBM peptide binding (in words): FP assay
[2] = target: PRMT5 C278A mutant (Homo sapiens, UniProt O14744, C278A); experiment: FP competition assay with C278A mutant PRMT5
[3] = target: PRMT5:WDR77 complex (Homo sapiens, UniProt O14744); experiment: SPR competition assay, full-length pICln titrated on pre-incubated PRMT5:WDR77; type: binding; conditions: PRMT5 pre-incubated with 2 μM compound overnight at 4C
[4] = target: PRMT5-RIOK1 complex (Homo sapiens, UniProt O14744); experiment: PRMT5-RIOK1 NanoBiT assay in permeabilized cells; type: cell-based
[5] = target: PRMT5 (Homo sapiens, UniProt O14744); experiment: Target engagement in cells; type: cell-based; conditions: Expi293 cells, 6 hours, maximum labeling
[6] = tested on: symmetric arginine dimethylation levels in MTAP−/− HCT116 cells; experiment: Western blot of total symmetric arginine dimethylation; type: cell-based; conditions: 25 μM

PRMT5:WDR77 hetero-octameric complex, sequence (O14744 whole entry): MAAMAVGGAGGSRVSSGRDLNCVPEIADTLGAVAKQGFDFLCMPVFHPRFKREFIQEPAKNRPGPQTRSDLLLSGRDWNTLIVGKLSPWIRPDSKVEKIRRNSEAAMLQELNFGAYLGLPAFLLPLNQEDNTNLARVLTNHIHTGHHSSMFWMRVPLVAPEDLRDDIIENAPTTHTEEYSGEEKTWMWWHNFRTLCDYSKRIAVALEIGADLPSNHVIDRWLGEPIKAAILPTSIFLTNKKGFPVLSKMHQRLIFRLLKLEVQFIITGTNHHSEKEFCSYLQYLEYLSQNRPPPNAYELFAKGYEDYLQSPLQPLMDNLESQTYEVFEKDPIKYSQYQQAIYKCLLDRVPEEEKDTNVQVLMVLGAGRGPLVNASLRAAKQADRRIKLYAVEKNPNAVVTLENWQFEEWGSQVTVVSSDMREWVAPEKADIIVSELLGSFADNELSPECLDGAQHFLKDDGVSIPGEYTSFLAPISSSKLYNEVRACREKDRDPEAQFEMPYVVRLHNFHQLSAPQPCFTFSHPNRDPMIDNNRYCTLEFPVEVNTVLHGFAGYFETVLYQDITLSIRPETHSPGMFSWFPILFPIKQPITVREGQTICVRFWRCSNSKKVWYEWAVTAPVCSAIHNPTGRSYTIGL
PRMT5:WDR77 hetero-octameric complex, sequence (Q9BQA1 whole entry partner): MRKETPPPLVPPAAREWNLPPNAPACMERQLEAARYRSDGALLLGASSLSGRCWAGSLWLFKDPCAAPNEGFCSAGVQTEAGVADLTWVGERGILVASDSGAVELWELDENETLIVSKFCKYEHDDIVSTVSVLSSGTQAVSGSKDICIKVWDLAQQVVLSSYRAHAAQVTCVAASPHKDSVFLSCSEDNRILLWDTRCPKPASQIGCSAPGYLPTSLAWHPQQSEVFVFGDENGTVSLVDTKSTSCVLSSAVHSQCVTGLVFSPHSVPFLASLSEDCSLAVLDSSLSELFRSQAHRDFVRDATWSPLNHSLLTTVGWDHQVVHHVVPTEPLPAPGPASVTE
PRMT5 C278A mutant, sequence (O14744 whole entry C278A): as the sequence (O14744 whole entry) above, with C278A counted along it
PRMT5 C278A mutant, sequence (Q9BQA1 whole entry partner): as the sequence (Q9BQA1 whole entry partner) above
PRMT5-RIOK1 complex, sequence (O14744 whole entry): as the sequence (O14744 whole entry) above
PRMT5-RIOK1 complex, sequence (Q9BQA1 whole entry partner): as the sequence (Q9BQA1 whole entry partner) above
PRMT5:WDR77 complex, sequence (O14744 whole entry): as the sequence (O14744 whole entry) above
PRMT5:WDR77 complex, sequence (Q9BQA1 whole entry partner): as the sequence (Q9BQA1 whole entry partner) above
PRMT5, sequence (O14744 whole entry): as the sequence (O14744 whole entry) above
PRMT5, sequence (Q9BQA1 whole entry partner): as the sequence (Q9BQA1 whole entry partner) above

CSC[C@H]1O[C@@H](n2cnc3c(N)ncnc32)[C@H](O)[C@@H]1O [MTA, 5′-S-Methyl-5′-thioadenosine]
IC50 [1]: > 100000 nM

CN(C)S(=O)(=O)N1CCCC(NC(=O)Cn2ncc(Cl)c(Cl)c2=O)C1 (stereo not drawn) [Compound 18, 2-(4,5-Dichloro-6-oxopyridazin-1(6H)-yl)-N-(1-(N,N-dimethylsulfamoyl)piperidin-3-yl)acetamide]
inhibition of PRMT5-PBM peptide binding (in words) [1]: no ability to displace the PBM peptide

Cc1ccc(NC(=O)Cn2ncc(Cl)c(Cl)c2=O)cc1S(=O)(=O)NCCc1ccccn1 [Compound 6, 2-(4,5-Dichloro-6-oxopyridazin-1(6H)-yl)-N-(4-methyl-3-(N-(2-(pyridin-2-yl)ethyl)sulfamoyl)phenyl)acetamide]
IC50 [2]: > 100000 nM | IC50 [1]: 600 nM | pICln binding to compound-treated PRMT5 (in words) [3]: greatly reduced binding response

Nc1nc2cc(CC[C@H]3C[C@@H](n4ccc5c(N)ncnc54)[C@H](O)[C@@H]3O)ccc2cc1Br [JNJ-64619178]
inhibition of PRMT5-PBM peptide binding (in words) [1]: failed to inhibit this binding

Cc1ccc(N(C)C(=O)[C@H](C)n2ncc(Cl)cc2=O)cc1S(=O)(=O)NCCc1ccccn1 [Compound 29, (2S)-2-(4-chloro-6-oxo-pyridazin-1-yl)-N-methyl-N-[4-methyl-3-[2-(2-pyridyl)ethylsulfamoyl]phenyl]propanamide]
disruption of PRMT5-RIOK1 complex, permeabilized cells (in words) [4]: inactive

Cc1ccc(NC(=O)[C@H](C)n2ncc(Cl)cc2=O)cc1S(=O)(=O)NCCc1ccccn1 [Compound 27, (2S)-2-(4-chloro-6-oxo-pyridazin-1-yl)-N-[4-methyl-3-[2-(2-pyridyl)ethylsulfamoyl]phenyl]propanamide]
total PRMT5 protein labeled [5]: ~ 40% | symmetric arginine dimethylation levels by WB (in words) [6]: reduction in symmetric arginine dimethylation levels; also recorded: reduces SDMA

O=C(NC[C@H](O)CN1CCc2ccccc2C1)c1cc(NC2COC2)ncn1 [EPZ015666]
inhibition of PRMT5-PBM peptide binding (in words) [1]: failed to inhibit this binding

competitor PBM peptide: pICln 13-mer control peptide displacing the fluorescently-labeled PBM probe (TVAGQFEDADVDH; Terminal caps are) [reference compound]
IC50 ([2]; read-out: FP IC50 against C278A mutant, Fig. 3b, C278A PRMT5): 1400 nM | IC50 ([1]; read-out: FP IC50 against WT PRMT5, Fig. 3b, WT vs C278A comparison): 2000 nM

Source: PMC9036822 (Journal of medicinal chemistry, 2021)
